B1: GST-EC5 fusion protein: purified GST fusion protein carrying the EC5 domain of E-cadherin (protein)
chain: IPEPRTIFFCERNPKPQVINIIDADLPPNTSPFTAELTHGASANWTIQYNDPTQESIILKPKMALEVGDYKINLKLMDNQNKDQVTTLEVSVCDCEGAAGVCRK
modifications: left off: a dimerising Fc or GST
notes: purified GST fusion protein carrying the EC5 domain of E-cadherin

Columns and labels:
Fn [1] = assay: Tissue culture invasion assay, Fn into HCT116; assay type: cell-based, Fusobacterium nucleatum; details: for inhibition of Fn invasion of HCT116: MOI 50, 4 hrs
Experimental: (§1) Cells were seeded in 24-well or 96-well plates at 8×10^4 cells or 2.5×10^4 cells per well in the growth medium and grown to 100% confluent. Bacteria were added to the cells at a multiplicity of infection (MOI) of 50. Following 1 hr incubation at 37° C. in 5% CO2, the monolayers were washed 3 times with D-PBS, pH 7.1, supplemented with Ca^2+ and Mg^2+. Cells were lyzed with water for 20 min at 37° C. Serial dilutions of the lysates were plated onto blood agar plates to enumerate the total cell-associated bacteria. For invasion assays, the bacteria were incubated with the monolayers at 37° C. for 4 hrs, followed by washes with PBS. Fresh media containing 300 μg/ml gentamicin and 200 μg/ml metronidazole were added to the monolayers and incubated for an additional hour to kill extracellular bacteria. The cells were then washed and lyzed with water as described above. The levels of attachment and invasion were expressed as the percentage of bacteria recovered following cell lysis relative to the total number of bacteria initially added. Each experiment was performed in triplicates and repeated at least twice.

HCT116 [2] = assay: Real-time quantitative PCR (qPCR) of HCT116; assay type: cell-based, human; details: for inhibition of activation of inflammatory genes, mRNA / inhibition of activation of tumor growth genes (Wnt, oncogenes), mRNA: FadAc, 2 hrs incubation
Experimental: (§2) Total RNA was extracted from CRC cells, xenografts, or clinical specimens. cDNA synthesis and RT-PCR were performed as previously described, using primers listed in Table 1. Data were analyzed by the ΔΔCt method and normalized to the GAPDH or Fn-specific 16S rRNA. To quantify the fadA gene copies, plasmid carrying fadA was serially diluted to 10^2-10^8 fadA copies/μl and used to generate standard curves for Ct values. The fadA gene copies in the clinical samples were calculated based on the standard curves. Each experiment was performed in triplicates and repeated at least three times.

[3] = system: E-cadherin-mediated cellular signaling in HCT116; assay: Subcellular fractions of HCT116, Western blot; assay type: cell-based, human; details: 50 μM inhibitor pre-incubated 1 hour, FadAc
Source text: The following antibodies were used: anti-FadA monoclonal antibody (mAb) 5G11-3G8 (Xu et al., 2007), mAb anti-CDH1 (Abcam or Cell Signaling Tech), polyclonal anti-phospho-CDH1 (ECM Biosciences), mAb anti-GAPDH (Invitrogen), mAb anti-β-catenin (R&D systems), polyclonal anti-phospho-β-catenin (Cell Signaling Tech), mAb anti-LEF/TCF1 (Invitrogen), mAb anti-NFkB (Invitrogen), mAb anti-Myc (Cell Signaling Tech), mAb anti-cyclin D1 (Cell Signaling Tech), mAb anti-EGFR (Cell Signaling Tech), mAb anti-GAPDH (Cell Signaling Tech), mAb anti-PCNA (Cell Signaling Tech), polyclonal goat-anti-mouse or goat-anti-rabbit secondary antibody conjugated with horseradish peroxidase (HRP) (Pierce Biotechnology). Peptides were synthesized by Neo Group, Inc (Cambridge, Mass.). Western blot analyses were performed as previously described.
Cells were incubated with 1 mg/ml of FadAc or mFadA followed by the extraction of subcellular fractions. When indicated, 50 μM of the corresponding protein tyrosine kinase inhibitor (Genistein) and clathrin inhibitor (Pitstop2) were pre-incubated with cells for 1 hour. Membrane, cytosolic and nuclei fractions were prepared using the Compartmental Protein Extraction kit (Millipore) according to the manufacturer's instructions.

Fn [4] = assay: Tissue culture attachment assay, Fn on HCT116; assay type: cell-based, Fusobacterium nucleatum; details: for inhibition of Fn attachment of HCT116: MOI 50, 1 hr
Experimental: as §1

[5] = system: Fusobacterium nucleatum (Fn); assay: Fn invasion of endothelial cells; assay type: cell-based; details: FIG. 8
Experimental: as §1

HCT116 xenografts [6] = assay: HCT116 xenograft tumor growth in nude mice; assay type: in vivo; details: 0.01 μmol peptide with FadAc
Experimental: (§3) The animal protocol was approved by the Case Western Reserve University Institutional Animal Care and Use Committee. An inoculum of 5×10^6 cells were injected s.c. and bilaterally into 4- to 6-week-old female nude mice (5 per group) as previously described. The mice were randomized to receive one of the following: FadAc or mFadA (each at 80 μg), BSA (0.01 μmol, i.e., 660 μg), or peptide (0.01 μmol), or bacteria at 1×10^7 cfu, at each inoculation site.

Fn [7] = assay: Immunohistochemical staining of Fn-infected HCT116 xenografts; assay type: in vivo, Fusobacterium nucleatum; details: wild-type Fn injected into HCT116 xenografts
Experimental: Immunofluorescent staining of cells was performed as previously described. Mouse anti-β-catenin mAb and Alexa Fluor 634-conjugated goat anti-mouse polyclonal antibodies were used. IHC analysis of xenograft tumors were performed as previously described, using rabbit anti-Fn polyclonal antibodies. Pre-immune serum from the same rabbit was used as control.
as §3

HCT116 [8] = assay: Cell proliferation assay, HCT116; assay type: cell-based, human; details: bacteria at MOI 1000:1
Experimental: (§4) CRC cells were seeded in 24-well plates at 1×10^4 cells per well in the growth medium. Cells were untreated, or incubated with FadAc or peptides at indicated concentration, or with bacteria at a multiplicity of infection (MOI) of 1000:1. Cell numbers were counted at 24-hour intervals using a hemocytometer. Each experiment was performed in triplicates and repeated at least twice.

[9] = system: RKO cells transfected with CDH1; assay: Cell proliferation assay, RKO cells transfected with CDH1; assay type: cell-based, human; details: bacteria at MOI 1000:1
Experimental: CDH1 transfections were performed as previously described. siRNA assays were performed using the FlexiTube siRNA anti-CDH1 or anti-beta-catenin reagent and All Stars FlexiTube Control siRNA from Qiagen (Valencia, Calif.) according the manufacturer's instructions.
as §4

HCT116 xenografts [10] = assay: qPCR of HCT116 xenografts; assay type: in vivo, mice; details: FadAc or wild-type Fn
Experimental: as §3, §2

[11] = system: Fusobacterium nucleatum (Fn); assay: Fn attachment of endothelial cells; assay type: cell-based; details: FIG. 8
Experimental: as §1

| Molecule | inhibition of Fn invasion of HCT116 (Fn [1]) | inhibition of activation of inflammatory genes, mRNA (HCT116 [2]) | inhibition of activation of tumor growth genes (Wnt, oncogenes), mRNA (HCT116 [2]) | effect on Fn-stimulated expression of NF-kappaB and cytokines IL-6, 8, and 18 (HCT116 [2]; wild type Fn) | effect of inhibitor on CRT activation (β-catenin translocation, LEF/TCF, Wnt and oncogenes) [3] | effect of inhibitor on E-cadherin phosphorylation [3] | effect of inhibitor on FadA and E-cadherin internalization [3] | effect of inhibitor on FadA binding to the membranes [3] | effect of inhibitor on NF kappaB activation [3] | inhibition of Fn attachment of HCT116 (Fn [4]) | block of Fn invasion of endothelial cells [5] | effect of peptide on FadAc-stimulated tumor growth (HCT116 xenografts [6]) | prevention of Fn invasion into tumor tissues (Fn [7]) | inhibition of Fn-stimulated HCT116 growth (HCT116 [8]) | suppression of Fn growth stimulation of CDH1-transfected RKO cells [9] | inhibition of stimulation of tumor growth genes and inflammatory genes in xenografts (HCT116 xenografts [10]) | block of Fn attachment of endothelial cells [11] | concentration of maximum inhibition of Fn invasion of HCT116 (Fn [1]) [µM] | concentration of maximum inhibition of Fn attachment of HCT116 (Fn [4]) [µM] |
| --- | --- | --- | --- | --- | --- | --- | --- | --- | --- | --- | --- | --- | --- | --- | --- | --- | --- | --- | --- |
| O=C1NC(=NS(=O)(=O)c2cccc3ccccc23)S/C1=C\c1ccc(Br)cc1 [Pitstop2] | prevented | only inhibited the inflammatory genes | not | abolished | unaffected | did not affect | inhibited | did not affect | no NF kappaB activation was observed | without affecting attachment |  |  |  |  |  |  |  |  |  |
| ASANWTIQYND [inhibitory peptide] | minimum required |  |  |  |  |  |  |  |  | minimum required | block | No increase was detected | prevented | inhibited | diminished | inhibited | block |  |  |
| O=c1c(-c2ccc(O)cc2)coc2cc(O)cc(O)c12 [Genistein] |  | inhibited | inhibited |  | abolished | prevented | prevented | abolished |  |  |  |  |  |  |  |  |  |  |  |
| B1 | inhibited by purified GST-EC5 fusion protein in a dose-dependent manner |  |  |  |  |  |  |  |  | inhibited by purified GST-EC5 fusion protein in a dose-dependent manner |  |  |  | inhibited | diminished |  |  | 0.1 | 0.1 |
